Laboratory results reported in patent publication US20070078620A1, “Methods and kits for delivering pharmaceutical agents into the coronary vascular adventitia” (Mercator MedSystems Inc., priority 2002, published 2007).

Assays:
[1] = two injections of 0.5 mL 5% silver nitrate into each iliac artery; hematoxylin-eosin stained sections
From the text: The animal was sacrificed according to approved protocol following the last injection. The arteries were removed and placed in 10% formalin without perfusion. 2 mm segments were embedded in paraffin, sectioned, and hematoxylin-eosin stained.

[2] = Distribution of a lipophilic compound (tacrolimus) after periadventitial delivery to coronary arteries, LC/MS of tissue; assay type: in vivo, swine; conditions: for concentration at 48 h: swine, in vivo
Experimental: Distribution of a lipophilic compound (tacrolimus): Eight swine underwent angiography. […] The two remaining arteries served as untreated controls. An untreated heart was used as a negative control. At 48 hours arteries were dissected from the musculature and perivascular fat, cut into 5 mm sections and analyzed by Liquid Chromatography/Mass Spectrometry against tacrolimus calibration standards containing homogenized untreated porcine heart tissue.

Structure (SMILES) | staining: site of delivery and diffusion [1] | persistence of drug in the artery ([2]; 48 hours after injection, full length of the artery) | subjects with distribution to the entire coronary tree ([2]; periadventitial delivery, 48 hours) | concentration at 48 h ([2]; mean concentration in the remaining segments) [ng/g] | concentration at 48 h ([2]; mean concentration within 1 cm of known injection sites) [ng/g] | concentration at 48 h ([2]; mean level of tacrolimus in confirmed injected arteries) [ng/g] | concentration at 48 h ([2]; mean level of tacrolimus in uninjected arteries of treated hearts) [ng/g]
O=[N+]([O-])[O-].[Ag+] [Silver Nitrate] | delivery outside the external elastic lamina of the vessels and diffusion around the circumference | – | – | – | – | – | –
C=CC[C@@H]1/C=C(\C)C[C@H](C)C[C@H](OC)[C@H]2O[C@@](O)(C(=O)C(=O)N3CCCC[C@H]3C(=O)O[C@H](/C(C)=C/[C@@H]3CC[C@@H](O)[C@H](OC)C3)[C@H](C)[C@@H](O)CC1=O)[C@H](C)C[C@@H]2OC [tacrolimus] | – | detectable | 8/8 | 26 | 64 | 55 | 27
